{"source": "the NIST ThermoML archive (doi:10.1021/acs.jced.8b00966)", "settings": "Liquid, Ebulliometric method (Recirculating still)", "note": "Numbers after ± are expanded uncertainties."}
{"smiles": "CC1(C)COC1", "note": "[3,3-dimethyloxetane]", "values": [{"measurement": "vapor or sublimation pressure", "setting": "352.8 K", "result": "101.3 ± 3", "unit": "kPa"}]}
{"smiles": "CC(C)(CO)CCl", "note": "[3-chloro-2,2-dimethyl-1-propanol]", "values": [{"measurement": "vapor or sublimation pressure", "setting": "439.15 K", "result": "101.3 ± 3", "unit": "kPa"}]}
{"smiles": "CC1CCCCC1", "note": "[methylcyclohexane]", "values": [{"measurement": "vapor or sublimation pressure", "setting": "373.35 K", "result": "101.3 ± 3", "unit": "kPa"}]}
